# Reference: ChEMBL document CHEMBL1157309, “Sensitivity of cardiac background inward rectifying K+ outward current (IK1) to the alkaloids lepadiformines A, B, and C” (J Nat Prod, 2006)
# Counter-ions that a name gives are not always drawn. Activity calls are given as the source filed them. The calls are words filed in the database; no cut-off is given here.
# Assays:
# Pelophylax lessonae [1] = test: Inhibition of Kir channel in frog sino-atrial myocytes assessed as blockade of barium and caesium-sensitive inward rectifying potassium outward current potential at 3.3 uM by whole cell patch clamp method; format: cell-based; settings: Cardiac atrium
# Pelophylax lessonae [2] = test: Inhibition of Kir channel in frog sino-atrial myocytes assessed as blockade of barium and caesium-sensitive inward rectifying potassium outward current potential at 2.5 uM by whole cell patch clamp method; format: cell-based; settings: Cardiac atrium
# [3] = Inhibition of Kir channel in frog sino-atrial myocytes assessed as half-maximal response for blockade of barium and caesium-sensitive inward rectifying potassium outward current by whole cell patch clamp method; format: cell-based, Pelophylax lessonae, Cardiac atrium
# Pelophylax lessonae [4] = test: Inhibition of Kir channel in frog sino-atrial myocytes assessed as blockade of barium and caesium-sensitive inward rectifying potassium outward current by whole cell patch clamp method; format: cell-based; settings: Cardiac atrium
# Pelophylax lessonae [5] = test: Inhibition of Kir channel in frog sino-atrial myocytes assessed as blockade of barium and caesium-sensitive inward rectifying potassium outward current at 1.6 uM by whole cell patch clamp method; format: cell-based; settings: Cardiac atrium
# Pelophylax lessonae [6] = test: Inhibition of Kir channel in frog sino-atrial myocytes assessed as blockade of barium and caesium-sensitive inward rectifying potassium outward current potential at 4.1 uM by whole cell patch clamp method; format: cell-based; settings: Cardiac atrium
SMILES,Activity (Pelophylax lessonae [1]),inhibition (Pelophylax lessonae [2]) [%],Kd [3] [µM],Activity (Pelophylax lessonae [4]),Activity (Pelophylax lessonae [5]),Activity (Pelophylax lessonae [6])
CCCC[C@@H]1CC[C@@H]2CCCC[C@]23CCCN13,inactive,8.4,,,,
CCCCCC[C@@H]1CC[C@@H]2CCCC[C@]23CC[C@@H](CO)N13 [LEPADIFORMINE A HYDROCHLORIDE],,,1.42,Dose-dependent effect,Active,
CCCC[C@@H]1CC[C@@H]2CCCC[C@]23CC[C@@H](CO)N13 [LEPADIFORMINE B HYDROCHLORIDE],,54,1.56,,,Active
